Values joined by “and” are separate entries in the source; they are usually repeats but may differ in a detail not shown here. Equal entries are not always repeated.
What was measured:
Shay's ulcer = Shay's ulcer (pylorus ligation) in rats; type: in vivo, male Donryu strain rats; conditions: for Ulcer index: total ulcerated area in forestomach
Experimental: Shay's ulcer: Groups of ten male Donryu strain rats each weighing 210 to 230 g were deprived of food for 48 hours. The pylorus of each rat was ligated according to the method of Shay et al [Gastroenterology, 5, 43-61 (1945)]. Each of the animals was allowed to stand abstained from food and water for further 14 hours and then sacrificed to remove its stomach. After collection of the gastric juice, the ulcerated area (mm^2) in the forestomach of each rat was measured under a dissecting microscope (10×). The total area (mm^2) of all the lesions of each rat was indicated as an ulcer index. Test medicine samples were given orally immediately after the pylorus ligation.

[1] = tested on: Indomethacin-induced ulcer; assay: Indomethacin-induced ulcer in rats; type: in vivo, male Donryu strain rats; conditions: for Ulcer index: Indomethacin (25 mg/kg s.c.)-induced ulcer, 300 mg/kg P.O. ten minutes before pylorus ligation, total length of lesions
Experimental: Indomethacin-induced ulcer: Groups of ten male Donryu strain rats each weighing 200 to 215 g were deprived of food for 24 hours. Then, the pylorus was ligated under ether anethesia, after which indomethacin was administered subcutaneously in an amount of 25 mg/kg to each rat. Seven hours after the administration, each of the animals was sacrificed under ether anethesia to remove its stomach, followed by immersion in a 1% formalin solution for ten minutes. The stomach which had been semi-fixed was incised along its greater curvature, and the length (mm) of each lesion formed in the mucous membrane was measured under a dissecting microscope (10×). The total length (mm) of all the lesions of each rat was indicated as an ulcer index. Test medicine samples were given orally ten minutes before the pylorus legation.

[2] = rats, 1,000 mg/kg P.O. immediately after pylorus ligation
[3] = Indomethacin-induced ulcer, 300 mg/kg P.O.

With N-acetyl-DL-carnosine aluminum salt the “% Inhibition” value (Shay's ulcer; rats, 1,000 mg/kg P.O.) was 75.9%, the Ulcer index (Shay's ulcer; [2]) was 0.7 ± 0.8 mm^2 and the Ulcer index [1] was 6.7 ± 3.0 mm. For the same molecule, the “% Inhibition” value [1, 3] was 60.1%.
N-acetyl-L-carnosine aluminum salt [B] was tested, and the “% Inhibition” value (Shay's ulcer; rats, 1,000 mg/kg P.O.) was 72.4%, the Ulcer index (Shay's ulcer; [2]) was 0.8 ± 0.6 mm^2 and the Ulcer index [1] was 6.5 ± 2.5 mm. For the same molecule, the “% Inhibition” value [1, 3] was 61.3%.
In the case of `NCCC(=O)N[C@@H](Cc1cnc[nH]1)C(=O)O` [L-Carnosine, L-carnosine], the Ulcer index [1] is reported as 17.1 ± 3.1 mm and the “% Inhibition” value [1, 3] is reported as ~ 0%.
For `NC(=O)CC[C@H](N)C(=O)O` [L-Glutamine, L-glutamine], the Ulcer index [1] was 9.7 ± 3.9 mm and the inhibition at 300 mg/kg ([1]; Rattus norvegicus, po, Indomethacin-induced ulcer, 300 mg/kg P.O.) was 42.3%.
aluminum sucrose sulfate was tested, and the “% Inhibition” value (Shay's ulcer; rats, 1,000 mg/kg P.O.) was 72.4% and 71.0%, the Ulcer index (Shay's ulcer; [2]) was 0.8 ± 0.6 mm^2 and 0.9 ± 0.5 mm^2 and the Ulcer index [1] was 7.4 ± 2.8 mm. The “% Inhibition” value [1, 3] was 56.0%.
N-propionyl-L-carnosine aluminum salt was tested, and the “% Inhibition” value (Shay's ulcer; rats, 1,000 mg/kg P.O.) was 74.2% and the Ulcer index (Shay's ulcer; [2]) was 0.8 ± 0.8 mm^2.
For `CC(=O)N[C@@H](CCC(N)=O)C(=O)O.[Al]` [N-Acetyl-L-glutamine aluminum, N-acetyl-L-glutamine aluminum], the inhibition at 2000 mg/kg (Shay's ulcer; Rattus norvegicus, po, rats, 2,000 mg/kg P.O.) was 69%, the “% Inhibition” value (Shay's ulcer; rats, 2,000 mg/kg P.O.) was 67.7% and the Ulcer index (Shay's ulcer; rats, 2,000 mg/kg P.O. immediately after pylorus ligation) was 0.9 ± 0.7 mm^2 and 1.0 ± 0.6 mm^2.
